# According to PubChem BioAssay AID330 (DTP/NCI, 2004):
# Values joined by “and” are separate entries in the source; they are usually repeats but may differ in a detail not shown here. Identical values can stand only once. Inconclusive results and toxic doses are left out.
# System: P388 leukemia ip, CD2F1 mice, survival T/C
# Assay: NCI In Vivo Anticancer Drug Screen. Data for tumor model P388 Leukemia (intraperitoneal) in CD2F1 (CDF1) mice
# Conditions: endpoint: median survival time, higher = longer survival
# Summary of the method: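 Mice carrying the transplanted tumor received test compound or vehicle. Survival was recorded in each group, and the value is the treated-group measurement divided by that of the vehicle-treated control group.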
# [1] = dose: 100.0 mg/kg/injection, schedule: Q01DX009 (ip), vehicle: saline
# [2] = dose: 400.0 mg/kg/injection, schedule: Q01DX009 (ip), vehicle: saline
# [3] = dose: 25.0 mg/kg/injection, schedule: Q01DX009 (ip), vehicle: saline with Tween-80
# [4] = dose: 50.0 mg/kg/injection, schedule: Q01DX009 (ip), vehicle: saline with Tween-80
# [5] = dose: 100.0 mg/kg/injection, schedule: Q01DX009 (ip), vehicle: saline with Tween-80
# [6] = dose: 50.0 mg/kg/injection, schedule: Q01DX005 (ip), vehicle: Klucel (hydroxypropylcellulose) (HPC)
# [7] = dose: 100.0 mg/kg/injection, schedule: Q01DX005 (ip), vehicle: Klucel (hydroxypropylcellulose) (HPC)
# [8] = dose: 60.0 mg/kg/injection, schedule: Q01DX005 (ip), vehicle: saline with Tween-80
# [9] = dose: 120.0 mg/kg/injection, schedule: Q01DX005 (ip), vehicle: saline with Tween-80
# [10] = dose: 240.0 mg/kg/injection, schedule: Q01DX005 (ip), vehicle: saline with Tween-80
# [11] = dose: 50.0 mg/kg/injection, schedule: Q01DX005 (ip), vehicle: saline with Tween-80
# [12] = dose: 100.0 mg/kg/injection, schedule: Q01DX005 (ip), vehicle: saline with Tween-80
# [13] = dose: 200.0 mg/kg/injection, schedule: Q01DX009 (ip), vehicle: saline with Tween-80
# [14] = dose: 100.0 mg/kg/injection, schedule: Q04DX002 (ip), vehicle: Klucel (hydroxypropylcellulose) (HPC)
# [15] = dose: 200.0 mg/kg/injection, schedule: Q04DX002 (ip), vehicle: Klucel (hydroxypropylcellulose) (HPC)
# [16] = dose: 12.5 mg/kg/injection, schedule: Q01DX009 (ip), vehicle: distilled water + Tween-80
# [17] = dose: 25.0 mg/kg/injection, schedule: Q01DX009 (ip), vehicle: distilled water + Tween-80
# [18] = dose: 50.0 mg/kg/injection, schedule: Q01DX009 (ip), vehicle: distilled water + Tween-80
# [19] = dose: 60.0 mg/kg/injection, schedule: Q01DX005 (ip), vehicle: saline
# [20] = dose: 120.0 mg/kg/injection, schedule: Q01DX005 (ip), vehicle: saline
# [21] = dose: 240.0 mg/kg/injection, schedule: Q01DX005 (ip), vehicle: saline
structure (smiles),measurement,setting,value
NC(Cn1ccc(=O)c(O)c1)C(=O)O (centres undefined),T/C,"dose: 12.5 mg/kg/injection, schedule: Q01DX005 (ip), vehicle: saline",113 % of control
same,T/C,"dose: 25.0 mg/kg/injection, schedule: Q01DX005 (ip), vehicle: saline",115 % of control
same,T/C,"dose: 50.0 mg/kg/injection, schedule: Q01DX005 (ip), vehicle: saline",107 % of control
same,T/C,"dose: 100.0 mg/kg/injection, schedule: Q01DX005 (ip), vehicle: saline",116 % of control
same,T/C,[1],100 % of control and 96 % of control
same,T/C,"dose: 200.0 mg/kg/injection, schedule: Q01DX005 (ip), vehicle: saline",114 % of control
same,T/C,"dose: 200.0 mg/kg/injection, schedule: Q01DX009 (ip), vehicle: saline",102 % of control and 114 % of control
same,T/C,[2],107 % of control and 96 % of control
same,T/C,"dose: 600.0 mg/kg/injection, schedule: Q01DX009 (ip), vehicle: saline",98 % of control and 102 % of control
COc1ccc(/C=C/c2ccc(S(=O)(=O)c3ccc(/C=C/c4ccc(OC)cc4)c(NC(C)=O)c3)cc2NC(C)=O)cc1,T/C,[3],97 % of control
same,T/C,[4],97 % of control
same,T/C,[5],92 % of control
Nc1nnn(/N=C\c2ccccc2)n1,T/C,[6],92 % of control
same,T/C,[7],92 % of control
CC1=C(CCC(=O)O)c2cc3nc(cc4[nH]c(cc4C)cc4[nH]c(cc1n2)cc4C)C(C)(C)C3CCC(=O)O (centres undefined),T/C,"dose: 3.0 mg/kg/injection, schedule: Q01DX009 (ip), vehicle: Klucel (hydroxypropylcellulose) (HPC)",97 % of control
same,T/C,"dose: 6.0 mg/kg/injection, schedule: Q01DX009 (ip), vehicle: Klucel (hydroxypropylcellulose) (HPC)",92 % of control
same,T/C,"dose: 12.0 mg/kg/injection, schedule: Q01DX009 (ip), vehicle: Klucel (hydroxypropylcellulose) (HPC)",90 % of control
same,T/C,"dose: 24.0 mg/kg/injection, schedule: Q01DX009 (ip), vehicle: Klucel (hydroxypropylcellulose) (HPC)",87 % of control
CC(=O)N(c1ccncc1)c1ccc([N+](=O)[O-])cc1,T/C,[8],94 % of control
same,T/C,[9],92 % of control
same,T/C,[10],88 % of control
Cc1cc2c(cc1C)C(=O)C(Br)=C(N)C2=O,T/C,"dose: 25.0 mg/kg/injection, schedule: Q01DX005 (ip), vehicle: saline with Tween-80",94 % of control
same,T/C,[11],100 % of control and 91 % of control
same,T/C,[12],87 % of control
same,T/C,"dose: 200.0 mg/kg/injection, schedule: Q01DX005 (ip), vehicle: saline with Tween-80",92 % of control
COC(=O)Nc1ccc(Cc2ccc(NC(=O)OC)cc2)cc1,T/C,[3],101 % of control and 104 % of control
CC(C)N(C(N)=O)c1ccc2c(c1)OCO2,T/C,[4],98 % of control
same,T/C,[5],107 % of control
same,T/C,[13],98 % of control
CC(=O)C(CSC(=O)c1ccccc1)C(C)=O,T/C,[14],100 % of control
same,T/C,[15],100 % of control
CC(C)CC(=O)C1C(c2ccccc2)CC(=O)C(C(C)C)C1c1ccccc1 (centres undefined),T/C,[11],92 % of control
same,T/C,[12],92 % of control
O=c1[nH]/c(=C/c2ccc(CO)o2)c(=O)[nH]/c1=C\c1ccc(CO)o1,T/C,[16],90 % of control
same,T/C,[17],89 % of control
same,T/C,[18],87 % of control
same,T/C,"dose: 100.0 mg/kg/injection, schedule: Q01DX009 (ip), vehicle: distilled water + Tween-80",87 % of control
same,T/C,"dose: 200.0 mg/kg/injection, schedule: Q01DX009 (ip), vehicle: distilled water + Tween-80",90 % of control
NC(=O)CC1(c2ccccc2)CCCCC1,T/C,[4],111 % of control
same,T/C,[5],102 % of control
same,T/C,[13],104 % of control
Clc1ccc(C2NCCNCc3ccccc32)cc1 (centres undefined),T/C,[3],101 % of control
same,T/C,[4],107 % of control
same,T/C,[5],98 % of control and 115 % of control
Nc1ccc(S(=O)(=O)n2c(=O)oc3ccc(Cl)cc32)cc1,T/C,"dose: 50.0 mg/kg/injection, schedule: Q04DX002 (ip), vehicle: Klucel (hydroxypropylcellulose) (HPC)",97 % of control
same,T/C,[14],97 % of control
same,T/C,[15],90 % of control
Nc1nnc2nc(CC(=O)c3ccc([N+](=O)[O-])cc3)c(CC(=O)c3ccc([N+](=O)[O-])cc3)nn12,T/C,[19],98 % of control
same,T/C,[20],100 % of control
same,T/C,[21],100 % of control
O=C(NCCO)Nc1ccc2c(c1)OCCOCCOCCOCCO2,T/C,"dose: 30.0 mg/kg/injection, schedule: Q01DX005 (ip), vehicle: saline",98 % of control
same,T/C,[19],101 % of control
same,T/C,[20],99 % of control
same,T/C,[21],99 % of control
CCCCC#CC(=O)OCC,T/C,[8],101 % of control
same,T/C,[9],106 % of control
same,T/C,[10],113 % of control
COC(=O)C1=NC(=S)N=C(C(=O)OC)C1(C)C(=O)c1ccc(Cl)cc1,T/C,[8],95 % of control
same,T/C,[9],99 % of control
same,T/C,[10],94 % of control
Cc1nc(Br)c(Br)n1Cc1ccccc1,T/C,[8],99 % of control
same,T/C,[9],99 % of control
same,T/C,[10],105 % of control
COc1ccc2c(=O)c(-c3cc4c(cc3OC)OCO4)coc2c1,T/C,"dose: 8.0 mg/kg/injection, schedule: Q01DX005 (ip), vehicle: Klucel (hydroxypropylcellulose) (HPC)",88 % of control
same,T/C,"dose: 16.0 mg/kg/injection, schedule: Q01DX005 (ip), vehicle: Klucel (hydroxypropylcellulose) (HPC)",86 % of control
O=C(NCCCN1CCOCC1)Nc1ccc(Cc2ccc(NC(=O)NCCCN3CCOCC3)cc2)cc1,T/C,"dose: 50.0 mg/kg/injection, schedule: Q01DX009 (ip), vehicle: Klucel (hydroxypropylcellulose) (HPC)",94 % of control
same,T/C,"dose: 100.0 mg/kg/injection, schedule: Q01DX009 (ip), vehicle: Klucel (hydroxypropylcellulose) (HPC)",94 % of control
same,T/C,"dose: 200.0 mg/kg/injection, schedule: Q01DX009 (ip), vehicle: Klucel (hydroxypropylcellulose) (HPC)",94 % of control
O=C(O)C1CCC2(CC1)SCC1(CS2)CSC2(CCC(C(=O)O)CC2)SC1 (centres undefined),T/C,"dose: 7.5 mg/kg/injection, schedule: Q01DX009 (ip), vehicle: saline with Tween-80",104 % of control
same,T/C,"dose: 15.0 mg/kg/injection, schedule: Q01DX009 (ip), vehicle: saline with Tween-80",99 % of control
same,T/C,"dose: 30.0 mg/kg/injection, schedule: Q01DX009 (ip), vehicle: saline with Tween-80",107 % of control
CC(/C=C/c1ccccc1)=Nc1ccc(Cl)cc1,T/C,[3],100 % of control and 107 % of control
same,T/C,[4],100 % of control and 101 % of control and 107 % of control
same,T/C,[5],100 % of control and 101 % of control
same,T/C,[13],98 % of control
Nc1nc2nc(-c3ccccc3)nc(N)c2nc1C(=O)N/N=C/c1ccccc1,T/C,[5],96 % of control
same,T/C,[13],95 % of control
same,T/C,"dose: 400.0 mg/kg/injection, schedule: Q01DX009 (ip), vehicle: saline with Tween-80",100 % of control
COC(=O)C(C)CP(=O)(O)OC (centres undefined),T/C,"dose: 50.0 mg/kg/injection, schedule: Q01DX005 (ip), vehicle: water",97 % of control
same,T/C,"dose: 100.0 mg/kg/injection, schedule: Q01DX005 (ip), vehicle: water",98 % of control
same,T/C,"dose: 200.0 mg/kg/injection, schedule: Q01DX005 (ip), vehicle: water",114 % of control
CC(C)NC(=O)OCc1c(COC(=O)NC(C)C)c(-c2ccc(F)c(F)c2)n2c1CCC2,T/C,"dose: 3.13 mg/kg/injection, schedule: Q01DX009 (ip), vehicle: distilled water + Tween-80",151 % of control
same,T/C,"dose: 6.25 mg/kg/injection, schedule: Q01DX009 (ip), vehicle: distilled water + Tween-80",160 % of control
same,T/C,[16],172 % of control and 178 % of control
same,T/C,[17],123 % of control and 211 % of control
same,T/C,[18],109 % of control and 92 % of control
CN=C(N)N,T/C,"dose: 50.0 mg/kg/injection, schedule: Q01DX001 (ip), vehicle: saline",100 % of control
same,T/C,"dose: 100.0 mg/kg/injection, schedule: Q01DX001 (ip), vehicle: saline",98 % of control
same,T/C,"dose: 200.0 mg/kg/injection, schedule: Q01DX001 (ip), vehicle: saline",100 % of control
same,T/C,"dose: 400.0 mg/kg/injection, schedule: Q01DX001 (ip), vehicle: saline",101 % of control
COc1ccc(C2=C(c3ccccc3)C(=O)C3(c4ccccc4)CC23c2ccc(OC)cc2)cc1 (centres undefined),T/C,[6],97 % of control
same,T/C,[7],89 % of control
same,T/C,"dose: 200.0 mg/kg/injection, schedule: Q01DX005 (ip), vehicle: Klucel (hydroxypropylcellulose) (HPC)",92 % of control
NCCc1cc(O)c(O)c(O)c1,T/C,"dose: 50.0 mg/kg/injection, schedule: Q01DX009 (ip), vehicle: saline",108 % of control and 109 % of control
same,T/C,[1],117 % of control
same,T/C,[2],153 % of control and 168 % of control
N/C(CC(=O)Nc1cc(C(F)(F)F)ccc1Cl)=N\O,T/C,[8],108 % of control
same,T/C,[9],100 % of control
same,T/C,[10],108 % of control
